According to paper PMC9065575, “Synthesis, computational studies, antimycobacterial and antibacterial properties of pyrazinoic acid–isoniazid hybrid conjugates” (RSC Advances, 2019):
“And” between values parts separate entries of the source, which are not always exact repeats. Identical values can stand only once. Like-named read-outs stand apart in the source and are kept apart here.

Columns and labels:
Staphylococcus aureus = assay: Aerobic antibacterial MIC, standard dilution technique; format: cell-based; conditions: clinical isolate, read-out: Minimum inhibitory concentration (MIC) Staphylococcus aureus
From the text: (§1) Antibacterial properties were investigated for the synthesized compounds against a variety of Gram-positive (Staphylococcus aureus, Enterococcus faecalis) and Gram-negative (Klebsiella pneumonia, Proteus vulgaris, Pseudomonas aeruginosa) clinical isolate bacteria utilizing the standard technique.[21]

Proteus vulgaris = assay: as above; format: cell-based; conditions: clinical isolate, read-out: Minimum inhibitory concentration (MIC) Proteus vulgaris
From the text: as §1

Klebsiella pneumoniae = assay: as above; format: cell-based; conditions: clinical isolate, read-out: Minimum inhibitory concentration (MIC) Klebsiella pneumoniae
From the text: as §1

Enterococcus faecalis = assay: as above; format: cell-based; conditions: clinical isolate, read-out: Minimum inhibitory concentration (MIC) Enterococcus faecalis
From the text: as §1

Pseudomonas aeruginosa = assay: as above; format: cell-based; conditions: clinical isolate, read-out: Minimum inhibitory concentration (MIC) Pseudomonas aeruginosa
From the text: as §1

Mycobacterium bovis = assay: microbe, parasite or virus in culture; format: cell-based; conditions: Mycobacterium tuberculosis variant bovis, read-out: Minimum inhibitory concentration (MIC) M. bovis
[1] = system: RPE1 (normal human immortalized retinal epithelial) cell line; assay: Antiproliferative properties by MTT technique; format: cell-based; conditions: RPE1 cells, 100 μM
Procedure: Antiproliferative properties of the synthesized compounds were screened against RPE1 (normal human immortalized retinal epithelial) cell line to determine the toxicity/selectivity towards normal cell by the standard MTT technique.[23]
Antiproliferative properties of the synthesized compounds were tested against RPE1 (normal human immortalized retinal epithelial) cell line at 100 μM to determine the toxicity/selectivity towards normal cell by the standard MTT technique.[23]

[2] = system: M. tuberculosis Erdman strain expressing luciferase; assay: microbe, parasite or virus in culture; format: cell-based, Mycobacterium tuberculosis; conditions: 30 μg mL^−1, pH 7.0, 7 days, vs untreated controls
Mycobacterium marinum = assay: microbe, parasite or virus in culture; format: cell-based; conditions: clinical isolate, read-out: Minimum inhibitory concentration (MIC) M. marinum
Mycobacterium fortuitum = assay: microbe, parasite or virus in culture; format: cell-based; conditions: Mycolicibacterium fortuitum
[3] = Enterococcus faecalis, value in parentheses
[4] = clinical isolate, observed MIC, read-out: Minimum inhibitory concentration (MIC) M. fortuitum
[5] = clinical isolate, read-out: Minimum inhibitory concentration (MIC) M. fortuitum

## CC(C)C[C@H](NC(=O)c1cnccn1)C(=O)O [C00004]
Staphylococcus aureus
  MIC: 1020 µg/mL
Staphylococcus aureus; value in parentheses
  MIC: 4320 µM
Proteus vulgaris
  MIC: 8 µg/mL
Proteus vulgaris; value in parentheses
  MIC: 33.7 µM
Klebsiella pneumoniae
  MIC: 64 µg/mL
Klebsiella pneumoniae; value in parentheses
  MIC: 270 µM
Enterococcus faecalis; Enterococcus faecalis
  MIC: 0.03 µg/mL
Enterococcus faecalis; [3]
  MIC: 0.13 µM
Pseudomonas aeruginosa
  MIC: 0.03 µg/mL
Pseudomonas aeruginosa; value in parentheses
  MIC: 0.13 µM

## O=C(NNC(=O)[C@H](Cc1ccccc1)NC(=O)c1cnccn1)c1ccncc1 [C00015]
Staphylococcus aureus
  MIC: 16 µg/mL
Staphylococcus aureus; value in parentheses
  MIC: 41 µM
Proteus vulgaris
  MIC: 0.06 µg/mL
Proteus vulgaris; value in parentheses
  MIC: 0.15 µM
Klebsiella pneumoniae
  MIC: 8 µg/mL
Klebsiella pneumoniae; value in parentheses
  MIC: 20.5 µM
Enterococcus faecalis; Enterococcus faecalis
  MIC: 0.12 µg/mL
Enterococcus faecalis; [3]
  MIC: 0.31 µM
Pseudomonas aeruginosa
  MIC: 0.12 µg/mL
Pseudomonas aeruginosa; value in parentheses
  MIC: 0.31 µM

## CC(C)[C@H](NC(=O)c1cnccn1)C(=O)O [C00005]
Staphylococcus aureus
  MIC: 512 µg/mL
Staphylococcus aureus; value in parentheses
  MIC: 2290 µM
Proteus vulgaris
  MIC: 0.06 µg/mL
Proteus vulgaris; value in parentheses
  MIC: 0.27 µM
Klebsiella pneumoniae
  MIC: 0.03 µg/mL
Klebsiella pneumoniae; value in parentheses
  MIC: 0.13 µM
Enterococcus faecalis; Enterococcus faecalis
  MIC: 0.03 µg/mL
Pseudomonas aeruginosa
  MIC: 4 µg/mL
Pseudomonas aeruginosa; value in parentheses
  MIC: 17.9 µM

## O=C(NNC(=O)[C@H](Cc1c[nH]c2ccccc12)NC(=O)c1cnccn1)c1ccncc1 [C00017]
Staphylococcus aureus
  MIC: 16 µg/mL
Staphylococcus aureus; value in parentheses
  MIC: 37.3 µM
Proteus vulgaris
  MIC: 0.06 µg/mL
Proteus vulgaris; value in parentheses
  MIC: 0.14 µM
Klebsiella pneumoniae
  MIC: 4 µg/mL
Klebsiella pneumoniae; value in parentheses
  MIC: 9.31 µM
Enterococcus faecalis; Enterococcus faecalis
  MIC: 0.03 µg/mL
Enterococcus faecalis; [3]
  MIC: 0.07 µM
Pseudomonas aeruginosa
  MIC: 0.12 µg/mL
Pseudomonas aeruginosa; value in parentheses
  MIC: 0.28 µM

## O=C(NNC(=O)C(Cc1ccccc1)NC(=O)c1cnccn1)c1ccncc1 (centres unmarked) [C00016]
Staphylococcus aureus
  MIC: 16 µg/mL
Staphylococcus aureus; value in parentheses
  MIC: 41 µM
Proteus vulgaris
  MIC: 16 µg/mL
Proteus vulgaris; value in parentheses
  MIC: 41 µM
Klebsiella pneumoniae
  MIC: 8 µg/mL
Klebsiella pneumoniae; value in parentheses
  MIC: 20.5 µM
Enterococcus faecalis; Enterococcus faecalis
  MIC: 0.03 µg/mL
Enterococcus faecalis; [3]
  MIC: 0.08 µM
Pseudomonas aeruginosa
  MIC: 32 µg/mL
Pseudomonas aeruginosa; value in parentheses
  MIC: 82 µM

## O=C(N[C@@H](Cc1ccccc1)C(=O)O)c1cnccn1 [10e, (Pyrazine-2-carbonyl)-L-phenylalanine]
Mycobacterium bovis
  MIC: > 20 µg/mL and > 73.7 µM
[1]
  Percentage of cell proliferation ± SD: 90.4 ± 3.3%
[2]; Mycobacterium tuberculosis, ERDMAN, 168 h, read-out: Observed % growth inhibition at 30 µg/mL
  inhibition at 30 µg/mL: 60.4%
Mycobacterium marinum; observed MIC
  MIC: > 73.7 µM
Mycobacterium marinum
  MIC: > 20 µg/mL
Mycobacterium fortuitum; [4]
  MIC: > 73.7 µM
Mycobacterium fortuitum; [5]
  MIC: > 20 µg/mL

## NC(=O)c1cnccn1 [PZA, pyrazinamide, reference compound]
Mycobacterium bovis
  MIC: 162 µM and 20 µg/mL
[2]
  Observed % growth inhibition at 30 µg/mL: not observed
Mycobacterium marinum; observed MIC
  MIC: 81.2 µM
Mycobacterium marinum
  MIC: 10 µg/mL
Mycobacterium fortuitum; M. fortuitum, observed values listed with the BMLR-QSAR model, read-out: Observed MIC (Table S6)
  MIC: 81200 µM
Mycobacterium fortuitum; [4]
  MIC: 81.2 µM
Mycobacterium fortuitum; [5]
  MIC: 10 µg/mL

## CC(C)[C@H](NC(=O)c1cnccn1)C(=O)NNC(=O)c1ccncc1 [C00012]
Staphylococcus aureus
  MIC: 16 µg/mL
Staphylococcus aureus; value in parentheses
  MIC: 46.7 µM
Proteus vulgaris
  MIC: 0.06 µg/mL
Proteus vulgaris; value in parentheses
  MIC: 0.18 µM
Klebsiella pneumoniae
  MIC: 8 µg/mL
Klebsiella pneumoniae; value in parentheses
  MIC: 23.4 µM
Enterococcus faecalis; Enterococcus faecalis
  MIC: 0.12 µg/mL
Enterococcus faecalis; value in parentheses
  MIC: 0.35 µM
Pseudomonas aeruginosa
  MIC: 0.12 µg/mL
Pseudomonas aeruginosa; value in parentheses
  MIC: 0.35 µM

## CC[C@H](C)[C@H](NC(=O)c1cnccn1)C(=O)NNC(=O)c1ccncc1 [C00013]
Staphylococcus aureus
  MIC: 16 µg/mL
Staphylococcus aureus; value in parentheses
  MIC: 44.9 µM
Proteus vulgaris
  MIC: 0.06 µg/mL
Proteus vulgaris; value in parentheses
  MIC: 0.17 µM
Klebsiella pneumoniae
  MIC: 8 µg/mL
Klebsiella pneumoniae; value in parentheses
  MIC: 22.4 µM
Enterococcus faecalis; Enterococcus faecalis
  MIC: 0.03 µg/mL
Enterococcus faecalis; [3]
  MIC: 0.08 µM
Pseudomonas aeruginosa
  MIC: 0.12 µg/mL
Pseudomonas aeruginosa; value in parentheses
  MIC: 0.34 µM

## O=C(NNC(=O)c1ccncc1)c1ccncc1 [C00019]
Staphylococcus aureus
  MIC: 4 µg/mL
Proteus vulgaris
  MIC: 0.03 µg/mL
Klebsiella pneumoniae
  MIC: 4 µg/mL
Enterococcus faecalis; Enterococcus faecalis
  MIC: 16 µg/mL
Pseudomonas aeruginosa
  MIC: 0.06 µg/mL
Pseudomonas aeruginosa; value in parentheses
  MIC: 0.25 µM

## O=C(N[C@@H](Cc1ccccc1)C(=O)O)c1cnccn1 [C00008]
Staphylococcus aureus
  MIC: 64 µg/mL
Staphylococcus aureus; value in parentheses
  MIC: 236 µM
Proteus vulgaris
  MIC: 0.06 µg/mL
Proteus vulgaris; value in parentheses
  MIC: 0.22 µM
Klebsiella pneumoniae
  MIC: 64 µg/mL
Klebsiella pneumoniae; value in parentheses
  MIC: 236 µM
Enterococcus faecalis; Enterococcus faecalis
  MIC: 0.12 µg/mL
Enterococcus faecalis; [3]
  MIC: 0.44 µM
Pseudomonas aeruginosa
  MIC: 0.12 µg/mL
Pseudomonas aeruginosa; value in parentheses
  MIC: 0.44 µM

## O=C(NC(Cc1ccccc1)C(=O)O)c1cnccn1 (centres unmarked) [C00009]
Staphylococcus aureus
  MIC: 16 µg/mL
Staphylococcus aureus; value in parentheses
  MIC: 59 µM
Proteus vulgaris
  MIC: 0.06 µg/mL
Proteus vulgaris; value in parentheses
  MIC: 0.22 µM
Klebsiella pneumoniae
  MIC: 16 µg/mL
Klebsiella pneumoniae; value in parentheses
  MIC: 59 µM
Enterococcus faecalis; Enterococcus faecalis
  MIC: 0.03 µg/mL
Enterococcus faecalis; [3]
  MIC: 0.11 µM
Pseudomonas aeruginosa
  MIC: 16 µg/mL
Pseudomonas aeruginosa; value in parentheses
  MIC: 59 µM

## O=C(N[C@@H](Cc1c[nH]c2ccccc12)C(=O)O)c1cnccn1 [C00010]
Staphylococcus aureus
  MIC: 64 µg/mL
Staphylococcus aureus; value in parentheses
  MIC: 206 µM
Proteus vulgaris
  MIC: 0.06 µg/mL
Proteus vulgaris; value in parentheses
  MIC: 0.19 µM
Klebsiella pneumoniae
  MIC: 64 µg/mL
Klebsiella pneumoniae; value in parentheses
  MIC: 206 µM
Enterococcus faecalis; Enterococcus faecalis
  MIC: 0.03 µg/mL
Enterococcus faecalis; [3]
  MIC: 0.1 µM
Pseudomonas aeruginosa
  MIC: 0.12 µg/mL
Pseudomonas aeruginosa; value in parentheses
  MIC: 0.39 µM
